Measured values from patent US11679100B2, “Methods of enhancing immunity” (The Regents of the University of California, priority 2018, dated 2023).

Columns and labels:
CL66-Luc breast tumors = assay: Orthotopic CL66-Luc breast tumor model; assay type: in vivo, Balb/cJ mice
Method: Tumor Studies—Subcutaneous tumor studies: 5×10^5 LLC or B16 cells were injected subcutaneously into syngeneic (C57BL/6) 6- to 8-week old WT or Itgam^−/− mice (n=18). Tumors were excised at 7, 14 or 21 days, cryopreserved in OCT, lysed for RNA purification or collagenase-digested for flow cytometric analysis of CD11b+, F4/80+ and Gr1+ expression. Tumor volumes were calculated using the equation (l^2×w)/2. CL66-luc cells (0.5×10^6 cells) were suspended in 50 μL of basement membrane extract Matrigel (BD Pharmingen) in PBS (1:1) and inoculated orthotopically in the fourth mammary fat pad of female Balb/cJ mice. Tumor dimensions were measured every 2 days, and tumor volume was calculated using the equation: V (mm^3)=[…], where length is the longest diameter of the tumor and width is the shorter diameter.
Mice were divided into four cohorts: vehicle control treated, LA1 only treated, Taxol only treated, LA1 and Taxol treated. LA1 (2 mg/kg) was dissolved in 2% DMSO and 1% Tween-20 in saline and Taxol (2.5 mg/kg) was dissolved in a 1:1:6 ratio of Cremophor EL: Ethanol:Saline. LA1 was administered by intraperitoneal injection (i.p.) daily, while Taxol was administered every other day by i.p. injection until end-point. LA1+Taxol treated mice received LA1 i.p. in the morning followed by Taxol i.p. within 4 hours. Tumor burden was evaluated every other day by caliper measurements. Prior to tissue collection, mice were anesthetized by ketamine/xylazine and the lungs were perfused with PBS followed by 10% formalin and harvested for fixation. Mammary tumor tissue was harvested and divided for fixation (10% formalin or OCT), snap frozen, or made into single-cell suspensions and analyzed by flow cytometric analysis. For survival studies, Balb/c mice bearing CL66-derived tumors were treated for 6 weeks after the first treatment and monitored thereafter. End point was considered when the tumor reached […] in diameter (n=10-15).
Immunohistochemistry—Tumor samples were collected and cryopreserved in O.C.T. Sections (5 μm) were fixed in 100% cold acetone, blocked with 8% normal goat serum for 2 hours, and incubated with primary antibodies at […] for 2 hours at room temperature. Sections were washed 3 times with PBS and incubated with fluorescent secondary antibodies. Primary antibodies where: F4/80 (BM8, eBioscience), CD4 (H129.19, BD Bioscience), CD8 (53-6.7, BD Bioscience), CD31 (MEC13.1, BD Bioscience), desmin (RB0914-P1, LabVision, Thermo Scientific), and anti-smooth muscle actin (SMA) (1A4, Sigma-Aldrich). Slides were counterstained with 4′,6-diamidino-2-phenylindole (DAPI) to identify nuclei. Immunofluorescence images were collected on a Nikon microscope (Eclipse TE2000-U) and analyzed using Metamorph image capture and analysis software (Version 6.3r5, Molecular Devices). Pixels/field or cell number/field were quantified in five 100× fields from 5 biological replicates. For LA1 studies, immunohistochemical staining was quantified by counting marker positive cells in 3 different areas analyzed at 40× using a light microscope for each tumor tissue (n=4−6). Tissues that were stained with fluorochrome conjugated secondary antibodies were counter stained with DAPI and analyzed using the Zeiss 700 LSM confocal microscope and Zen software (Carl Zeiss Group, Hartford, Conn.).
Alternatively, immunostaining was performed on formalin fixed, paraffin-embedded tumor tissues. Deparaffinized tissue sections (5 μm) were either stained with hemotoxylin-eosin or were subjected to antigen retrieval by steam heating in an acidic pH solution (Citrate-based, Vector Laboratories) prior to immune staining for α-SMA (clone 1A4, Fisher Scientific), MMP9 (polyclonal rabbit, Abcam), S100A8 (goat polyclonal (M-19), Santa Cruz), CD31 (clone RM0032-1D12, Abcam), or ARG1 (sc-18351, Santa Cruz) at 4° C. overnight. […]

CL66-luc tumor cell = assay: Cytotoxicity assay, luciferase activity; assay type: cell-based; settings: 24, 48 and 72 hrs
Method: Cytotoxicity Assay—Taxol and LA1 cytotoxicity towards the CL66-luc tumor cell was determined by measuring luciferase activity in the tumor cells after exposure to LA1 or Taxol. CL66-luc cells (1,000 cells/well) were seeded into 96-well plates overnight at 37° C. prior to treatment with titrating concentrations of LA1 or Taxol dissolved in 1% DMSO in IDMEM for 24, 48 and 72 hrs. Cells treated with vehicle (1% DMSO in IDMEM) were a negative control. Media was aspirated from the cultured cells and 100 μL of a 150 μg/mL working solution of D-Luciferin in pre-warmed DMEM (10% FBS) was added to each well. The plates were incubated at 37° C. for 5 mins prior to reading luminescence using the EnSpire Plate Reader (PerkinElmer).

SMILES: O=C(O)c1ccc(-c2ccc(/C=C3\SC(=S)N(Cc4ccccc4)C3=O)o2)cc1 [LA1, leukadherin 1]
- CD8+ T cells in tumors (CL66-Luc breast tumors; CL66-Luc tumors): increased the presence of CD8+ T cells
- MHCII+ macrophages in tumors (CL66-Luc breast tumors; CL66-Luc tumors): increased the presence of MHCII+ macrophages
- expression of Arginase1, S100A8 and MMP9 in tumors (CL66-Luc breast tumors; CL66-Luc tumors): inhibited expression of Arginase1, S100A8 and MMP9 in CL66-Luc tumors
- MHCII, CD206, Arg1, MMP9 and S100A8 expression in TAMs (CL66-Luc breast tumors; CL66 Luc model): stimulating MHCII expression and reducing CD206, Arg1, MMP9 and S100A8 expression in TAMs
- CL66-Luc tumor growth, combination with irradiation (CL66-Luc breast tumors; LA1 2 mg/kg + IR 20 Gy): synergized with irradiation to suppress CL66-Luc breast tumor growth
- CL66-Luc tumor growth (CL66-Luc breast tumors; LA1 2 mg/kg i.p. daily, compared with taxol): potently reduced tumor growth in syngeneic, orthotopically implanted CL66-Luc breast tumors more effectively than taxol
- survival (CL66-Luc breast tumors; mouse models of cancer): prolong survival in mouse models of cancer
- CL66 Luc tumor growth relative to control tumors (CL66-Luc breast tumors; syngeneic, immune competent mice): 25%
- CL66-Luc breast tumor cell growth in vitro (CL66-luc tumor cell): no effect on CL66-Luc breast tumor cell growth in vitro
